Consider nine compounds from patent US9611261B2, “Perfluorinated cyclopropyl fused 1,3-oxazin-2-amine compounds as beta-secretase inhibitors and methods of use” (AMGEN INC., priority 2013, dated 2017).

In series [1] the target is Recombinant Cat D (Cathepsin D) (Homo sapiens (Human), UniProt P07339). The series can be described thus: In vitro enzymatic Cathepsin D (Cat D) FRET assay. The format is biochemical. The conditions noted are these: read-out: CatD IC50.
Experimental: Recombinant Cat D was expressed in CHO cells. The assay buffer for CathepsinD is 0.05 M citrate pH 3.5, 10% DMSO final, 5 mM CHAPS. […] The assays are effectively started by the addition of different FRET substrates (20 nM for Cat D) and the combination is incubated for one hour. The FRET assay is terminated with by addition of Tris buffer, which raises the pH to neutrality, and the fluorescence is determined. The FRET substrate is a peptide with commercially available fluorophore and quencher, on opposite sides of the BACE cleavage site. […] Proteolytic cleavage of the FRET substrate releases quenching of fluorescence (Cat D excitation 500 nm and emission 580 nm).
Series [2] deals with Beta Secretase enzyme (BACE) (Homo sapiens (Human), UniProt P56817). The series can be described thus: In vitro enzymatic BACE FRET assay. The format is biochemical. The conditions noted are these: read-out: BACE1 Enzyme assay IC50.
Experimental: In Vitro Enzymatic BACE FRET (Fluorescence Resonance Energy Transfer) Assay (Enzyme Assay Data in the Example Table I)
The assay buffer used in this screen is 0.05 M acetate, pH 4.2, 10% DMSO final, 100 uM genapol (which is a nonionic detergent, below its Critical Micelle Concentration). […] This assay is effectively started by the addition of FRET substrate (50 nM) and the combination is incubated for one hour. The FRET assay is terminated with by addition of Tris buffer, which raises the pH to neutrality, and the fluorescence is determined. The FRET substrate is a peptide with commercially available fluorophore and quencher, on opposite sides of the BACE cleavage site.
Another series relates to Aβ in lumbar CSF. The conditions noted are these: healthy volunteers, cited from earlier work.

Recombinant Cat D (Cathepsin D), sequence (P07339 65-412, species assumed): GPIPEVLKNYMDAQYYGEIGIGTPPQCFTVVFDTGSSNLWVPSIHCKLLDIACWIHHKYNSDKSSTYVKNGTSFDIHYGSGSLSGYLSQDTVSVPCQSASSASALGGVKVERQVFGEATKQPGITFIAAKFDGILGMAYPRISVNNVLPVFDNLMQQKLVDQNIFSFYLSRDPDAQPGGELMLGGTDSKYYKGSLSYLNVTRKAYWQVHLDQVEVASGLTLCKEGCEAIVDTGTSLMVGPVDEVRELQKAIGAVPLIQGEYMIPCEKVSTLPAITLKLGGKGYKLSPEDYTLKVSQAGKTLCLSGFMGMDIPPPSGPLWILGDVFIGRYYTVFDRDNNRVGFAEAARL
Beta Secretase enzyme (BACE), sequence (P56817 46-501, species assumed): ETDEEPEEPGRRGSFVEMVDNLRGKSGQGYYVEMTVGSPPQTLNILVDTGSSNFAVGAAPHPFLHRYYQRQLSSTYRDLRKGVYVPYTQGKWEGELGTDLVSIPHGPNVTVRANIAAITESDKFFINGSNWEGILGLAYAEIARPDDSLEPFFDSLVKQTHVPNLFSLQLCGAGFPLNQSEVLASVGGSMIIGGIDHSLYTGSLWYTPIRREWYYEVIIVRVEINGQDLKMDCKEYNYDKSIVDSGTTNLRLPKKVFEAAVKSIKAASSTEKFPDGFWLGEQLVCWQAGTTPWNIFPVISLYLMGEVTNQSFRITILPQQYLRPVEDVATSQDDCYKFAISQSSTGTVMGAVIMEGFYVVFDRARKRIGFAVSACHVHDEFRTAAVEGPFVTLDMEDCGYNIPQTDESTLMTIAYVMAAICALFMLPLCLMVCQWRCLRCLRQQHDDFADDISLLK

Regarding `N#Cc1ccc2c(c1)OCC[C@@H]2Nc1ccc(F)c([C@@]2(C(F)F)N=C(N)O[C@@H]3C[C@@H]32)c1` (mixture of isomers) [Example 383, (R)-4-((3-((1R,5S,6R)-3-amino-5-(difluoromethyl)-2-oxa-4-azabicyclo[4.1.0]hept-3-en-5-yl)-4-fluorophenyl)amino)chroman-7-carbonitrile and (S)-4-((3-((1R,5S,6R)-3-amino-5-(difluoromethyl)-2-oxa-4-azabicyclo[4.1.0]hept-3-en-5-yl)-4-fluorophenyl)amino)chroman-7-carbonitrile], the IC50 was found to be 206 µM in series [1] and 0.968 µM in series [2]. On the same counts, the results for `N#Cc1cnc2c(c1)CCC[C@@H]2Nc1ccc(F)c([C@@]2(C(F)F)N=C(N)O[C@@H]3C[C@@H]32)c1` (mixture of isomers) [Example 403, (R)-8-((3-((1R,5S,6R)-3-amino-5-(difluoromethyl)-2-oxa-4-azabicyclo[4.1.0]hept-3-en-5-yl)-4-fluorophenyl)amino)-5,6,7,8-tetrahydroquinoline-3-carbonitrile and (S)-8-((3-((1R,5S,6R)-3-amino-5-(difluoromethyl)-2-oxa-4-azabicyclo[4.1.0]hept-3-en-5-yl)-4-fluorophenyl)amino)-5,6,7,8-tetrahydroquinoline-3-carbonitrile] are 469 µM and 2.85 µM.

As for `C#CCOc1cnc(C(=O)Nc2cc(F)c(Cl)c([C@]3(CF)N=C(N)O[C@H]4C[C@H]43)c2)cn1` (racemic) [Example 140, N-(3-((1R/S,5S/R,6R/S)-3-amino-5-(fluoromethyl)-2-oxa-4-azabicyclo[4.1.0]hept-3-en-5-yl)-4-chloro-5-fluorophenyl)-5-(prop-2-yn-1-yloxy)pyrazine-2-carboxamide], the IC50 turned out to be 86.9 µM in series [1] and 0.006 µM in series [2].

Take `NC1=N[C@@](c2cc(NC(=O)c3cnc(Cl)cn3)ccc2F)(C(F)F)[C@H]2C[C@H]2O1` [Example 261, N-(3-((1R,5S,6R)-3-amino-5-(difluoromethyl)-2-oxa-4-azabicyclo[4.1.0]hept-3-en-5-yl)-4-fluorophenyl)-5-chloropyrazine-2-carboxamide]: the IC50 came out at 444 µM in series [1] and 0.037 µM in series [2]. Consider `COc1cc(Cl)cnc1C(=O)Nc1ccc(Cl)c([C@@]2(CF)N=C(N)O[C@@H]3C[C@@H]32)c1` [Example 297, N-(3-((1R,5S,6R)-3-amino-5-(fluoromethyl)-2-oxa-4-azabicyclo[4.1.0]hept-3-en-5-yl)-4-chlorophenyl)-5-chloro-3-methoxypicolinamide], for which the IC50 in series [1] came out at 835 µM.

As to `C[C@@]1(c2cc(NC(=O)c3ccc(Cl)cn3)cnc2F)N=C(N)O[C@H]2C[C@H]21` [Example 333], the IC50 in series [1] came out at 816 µM; in series [2], 0.13 µM. With `COc1cnc2c(Nc3cc(Cl)c(F)c([C@@]4(CF)N=C(N)O[C@@H]5C[C@@H]54)c3)nccc2n1` [Example 356, (1R,5S,6R)-5-(3-chloro-2-fluoro-5-((2-methoxypyrido[3,4-b]pyrazin-5-yl)amino)phenyl)-5-(fluoromethyl)-2-oxa-4-azabicyclo[4.1.0]hept-3-en-3-amine], the results for the IC50 in series [1] and in series [2] were 725 µM and 0.0659 µM, respectively. Turning to `N#Cc1cnc2c(c1)CC[C@@H]2Nc1ccc(F)c([C@@]2(C(F)F)N=C(N)O[C@@H]3C[C@@H]32)c1` [Example 404], the IC50 in series [2] came to 0.291 µM. Take `C[C@@]1(c2cc(-c3cncnc3)c(F)cc2F)CCSC(N)=N1` [LY2811376, (S)-4-(2,4-difluoro-5-pyrimidin-5-yl-phenyl)-4-methyl-5,6-dihydro-4H-[1,3]thiazin-2-ylamine]: the “Aβ reductions in lumbar CSF” value in the series with Aβ in lumbar CSF (after oral dosing of 30 or 90 mg) was “Prominent and long-lasting Aβ reductions”. The safety and tolerability entry in the series with Aβ in lumbar CSF (Ph I) is “safe and well tolerated”.

The IC50 is the concentration that gives 50% inhibition.
